Test [1] has as its target T1, Alkaline phosphatase, tissue-nonspecific isozyme (Homo sapiens, UniProt P05186).
T1 sequence (P05186 whole entry): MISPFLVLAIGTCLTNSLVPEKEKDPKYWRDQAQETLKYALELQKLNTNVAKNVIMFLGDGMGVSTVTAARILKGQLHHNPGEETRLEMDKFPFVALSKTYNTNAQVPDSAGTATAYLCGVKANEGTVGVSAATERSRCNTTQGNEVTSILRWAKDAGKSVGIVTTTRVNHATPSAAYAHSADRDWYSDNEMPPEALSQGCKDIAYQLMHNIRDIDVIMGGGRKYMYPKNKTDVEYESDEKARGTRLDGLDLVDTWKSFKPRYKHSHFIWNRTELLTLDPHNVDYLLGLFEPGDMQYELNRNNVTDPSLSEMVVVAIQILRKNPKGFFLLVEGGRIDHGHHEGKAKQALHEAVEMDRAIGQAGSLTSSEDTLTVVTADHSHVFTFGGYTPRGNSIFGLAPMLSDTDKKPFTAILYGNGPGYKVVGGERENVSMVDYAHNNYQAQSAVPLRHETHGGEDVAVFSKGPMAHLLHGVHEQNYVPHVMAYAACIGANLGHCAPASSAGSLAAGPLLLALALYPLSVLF
As to the kind of experiment: activation of tissue-nonspecific alkaline phosphatase – biochemical, TNAP isozyme, human IAP uHTS hits, selectivity assay for human IAP activator project, dose response (AID 488886).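 Also: potency of compounds raising TNAP activity as a selectivity check on IAP activators.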 The format is functional.

Test [2] deals with T2, Intestinal-type alkaline phosphatase (Homo sapiens, UniProt P09923). The test is described as follows: activation of human intestinal alkaline phosphatase – biochemical, luminescent, uHTS hits, set 2, dose response (AID 488817).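 Also: potency of activators that raise enzyme activity.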 The format is functional.
T2 sequence (P09923 whole entry): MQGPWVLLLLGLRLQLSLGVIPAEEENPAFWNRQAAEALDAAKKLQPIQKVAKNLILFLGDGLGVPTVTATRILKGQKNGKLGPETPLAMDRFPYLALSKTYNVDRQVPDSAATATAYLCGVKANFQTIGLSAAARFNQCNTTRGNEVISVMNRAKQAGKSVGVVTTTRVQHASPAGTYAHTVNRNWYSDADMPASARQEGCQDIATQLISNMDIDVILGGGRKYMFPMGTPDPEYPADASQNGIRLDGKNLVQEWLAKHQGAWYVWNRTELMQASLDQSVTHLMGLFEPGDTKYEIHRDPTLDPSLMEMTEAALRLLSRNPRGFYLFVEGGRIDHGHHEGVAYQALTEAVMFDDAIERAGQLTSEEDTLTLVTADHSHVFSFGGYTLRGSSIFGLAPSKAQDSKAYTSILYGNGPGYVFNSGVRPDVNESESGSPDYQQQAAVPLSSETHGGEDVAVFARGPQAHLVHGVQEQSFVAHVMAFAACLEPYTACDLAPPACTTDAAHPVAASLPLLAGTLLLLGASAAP
For test [3], the target named is T1, Alkaline phosphatase, tissue-nonspecific isozyme.
In test [4] the target is Intestinal-type alkaline phosphatase (Mus musculus, UniProt P24822). As to the kind of experiment: PubChem AID 488874. The format is functional.
Test [5] deals with T2, Intestinal-type alkaline phosphatase. As to the kind of experiment: human intestinal alkaline phosphatase activators, dose response, biochemical, luminescence, uHTS hits (AID 463120). The format is functional.
The target in test [6] is T3, Tyrosine-protein phosphatase non-receptor type 22 (Homo sapiens, UniProt Q9Y2R2).
T3 sequence (Q9Y2R2 whole entry): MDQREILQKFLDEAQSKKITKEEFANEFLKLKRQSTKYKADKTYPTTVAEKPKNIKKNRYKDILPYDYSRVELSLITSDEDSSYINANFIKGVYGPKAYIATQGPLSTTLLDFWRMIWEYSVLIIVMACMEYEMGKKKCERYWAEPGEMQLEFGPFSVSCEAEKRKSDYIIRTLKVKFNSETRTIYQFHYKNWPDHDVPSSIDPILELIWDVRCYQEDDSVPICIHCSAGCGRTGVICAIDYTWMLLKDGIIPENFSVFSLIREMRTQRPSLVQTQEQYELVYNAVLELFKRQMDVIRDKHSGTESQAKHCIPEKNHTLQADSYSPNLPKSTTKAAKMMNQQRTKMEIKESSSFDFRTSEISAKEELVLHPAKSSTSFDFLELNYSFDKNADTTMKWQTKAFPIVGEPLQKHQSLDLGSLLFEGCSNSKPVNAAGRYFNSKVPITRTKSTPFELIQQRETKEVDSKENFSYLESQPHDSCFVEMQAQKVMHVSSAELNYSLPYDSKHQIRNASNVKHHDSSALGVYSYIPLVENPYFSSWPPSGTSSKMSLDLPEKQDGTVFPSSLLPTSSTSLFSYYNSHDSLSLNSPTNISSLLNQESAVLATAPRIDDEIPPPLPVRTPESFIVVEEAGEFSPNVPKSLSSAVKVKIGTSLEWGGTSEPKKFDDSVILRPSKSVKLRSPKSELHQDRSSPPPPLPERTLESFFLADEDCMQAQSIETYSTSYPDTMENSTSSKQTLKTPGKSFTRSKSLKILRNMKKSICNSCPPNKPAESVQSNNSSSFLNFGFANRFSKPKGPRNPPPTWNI
The format is functional.

The target in test [7] is T4, Tyrosine-protein phosphatase non-receptor type 7 (Homo sapiens, UniProt P35236).
T4 sequence (P35236 whole entry): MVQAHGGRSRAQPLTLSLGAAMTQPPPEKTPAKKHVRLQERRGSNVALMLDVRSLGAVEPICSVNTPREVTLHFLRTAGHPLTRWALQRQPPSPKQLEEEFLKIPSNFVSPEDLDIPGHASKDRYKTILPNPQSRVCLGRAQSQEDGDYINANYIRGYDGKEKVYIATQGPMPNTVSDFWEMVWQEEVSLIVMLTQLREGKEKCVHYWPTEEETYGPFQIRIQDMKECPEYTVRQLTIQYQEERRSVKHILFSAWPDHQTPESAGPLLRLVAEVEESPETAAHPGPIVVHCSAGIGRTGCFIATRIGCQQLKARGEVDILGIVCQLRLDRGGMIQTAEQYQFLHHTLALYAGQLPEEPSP
In kind it is functional.

Test [8] addresses T3, Tyrosine-protein phosphatase non-receptor type 22. In kind it is functional. This is another data set of the same source.
For test [9], the target named is Peroxisome proliferator-activated receptor gamma/Nuclear receptor coactivator 1 (Homo sapiens, UniProt P37231). The test is described as follows: TR-FRET dose response biochemical High Throughput Screening assay for agonists of the steroid receptor coactivator 1 (SRC-1) recruitment by the peroxisome proliferator-activated receptor gamma (PPAR gamma): non-selective agonists. [Related pubchem assays (depositor defined):AID1300, AID1808, AID504735, AID631]. The format is protein assay. A general note: Time-resolved FRET reads energy transfer from a long-lived donor to a nearby acceptor.

Test [10] deals with Peroxisome proliferator-activated receptor gamma/Nuclear receptor coactivator 3 (Homo sapiens, UniProt P37231). The test is described as follows: TR-FRET dose response biochemical High Throughput Screening assay for agonists of the steroid receptor coactivator 3 (SRC-3) recruitment by the peroxisome proliferator-activated receptor gamma (PPAR gamma): non-selective agonists. [Related pubchem assays: 1301 (Confirmation screen.), 1048 (Primary screen.)]. In kind it is functional.

Test [11] deals with Peroxisome proliferator-activated receptor gamma/Nuclear receptor coactivator 2 (Homo sapiens, UniProt P37231). As to the kind of experiment: TR-FRET dose response biochemical High Throughput Screening assay for agonists of the steroid receptor coactivator 2 (SRC-2) recruitment by the peroxisome proliferator-activated receptor gamma (PPAR gamma): non-selective agonists. [Related pubchem assays: 1297, 1032 ]. The format is functional.

For test [12], the target named is T5, Fatty acid synthase (Homo sapiens, UniProt P49327). The test is described as follows: inhibition of human FAS-TE enzyme activity – biochemical, endpoint fluorescence intensity, uHTS hits, dose response (AID 624327).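 Also: fluorescence from hydrolysis of an O-methyl fluorescein acyl ester substrate by the enzyme.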 In kind it is functional.
T5 sequence (P49327 whole entry): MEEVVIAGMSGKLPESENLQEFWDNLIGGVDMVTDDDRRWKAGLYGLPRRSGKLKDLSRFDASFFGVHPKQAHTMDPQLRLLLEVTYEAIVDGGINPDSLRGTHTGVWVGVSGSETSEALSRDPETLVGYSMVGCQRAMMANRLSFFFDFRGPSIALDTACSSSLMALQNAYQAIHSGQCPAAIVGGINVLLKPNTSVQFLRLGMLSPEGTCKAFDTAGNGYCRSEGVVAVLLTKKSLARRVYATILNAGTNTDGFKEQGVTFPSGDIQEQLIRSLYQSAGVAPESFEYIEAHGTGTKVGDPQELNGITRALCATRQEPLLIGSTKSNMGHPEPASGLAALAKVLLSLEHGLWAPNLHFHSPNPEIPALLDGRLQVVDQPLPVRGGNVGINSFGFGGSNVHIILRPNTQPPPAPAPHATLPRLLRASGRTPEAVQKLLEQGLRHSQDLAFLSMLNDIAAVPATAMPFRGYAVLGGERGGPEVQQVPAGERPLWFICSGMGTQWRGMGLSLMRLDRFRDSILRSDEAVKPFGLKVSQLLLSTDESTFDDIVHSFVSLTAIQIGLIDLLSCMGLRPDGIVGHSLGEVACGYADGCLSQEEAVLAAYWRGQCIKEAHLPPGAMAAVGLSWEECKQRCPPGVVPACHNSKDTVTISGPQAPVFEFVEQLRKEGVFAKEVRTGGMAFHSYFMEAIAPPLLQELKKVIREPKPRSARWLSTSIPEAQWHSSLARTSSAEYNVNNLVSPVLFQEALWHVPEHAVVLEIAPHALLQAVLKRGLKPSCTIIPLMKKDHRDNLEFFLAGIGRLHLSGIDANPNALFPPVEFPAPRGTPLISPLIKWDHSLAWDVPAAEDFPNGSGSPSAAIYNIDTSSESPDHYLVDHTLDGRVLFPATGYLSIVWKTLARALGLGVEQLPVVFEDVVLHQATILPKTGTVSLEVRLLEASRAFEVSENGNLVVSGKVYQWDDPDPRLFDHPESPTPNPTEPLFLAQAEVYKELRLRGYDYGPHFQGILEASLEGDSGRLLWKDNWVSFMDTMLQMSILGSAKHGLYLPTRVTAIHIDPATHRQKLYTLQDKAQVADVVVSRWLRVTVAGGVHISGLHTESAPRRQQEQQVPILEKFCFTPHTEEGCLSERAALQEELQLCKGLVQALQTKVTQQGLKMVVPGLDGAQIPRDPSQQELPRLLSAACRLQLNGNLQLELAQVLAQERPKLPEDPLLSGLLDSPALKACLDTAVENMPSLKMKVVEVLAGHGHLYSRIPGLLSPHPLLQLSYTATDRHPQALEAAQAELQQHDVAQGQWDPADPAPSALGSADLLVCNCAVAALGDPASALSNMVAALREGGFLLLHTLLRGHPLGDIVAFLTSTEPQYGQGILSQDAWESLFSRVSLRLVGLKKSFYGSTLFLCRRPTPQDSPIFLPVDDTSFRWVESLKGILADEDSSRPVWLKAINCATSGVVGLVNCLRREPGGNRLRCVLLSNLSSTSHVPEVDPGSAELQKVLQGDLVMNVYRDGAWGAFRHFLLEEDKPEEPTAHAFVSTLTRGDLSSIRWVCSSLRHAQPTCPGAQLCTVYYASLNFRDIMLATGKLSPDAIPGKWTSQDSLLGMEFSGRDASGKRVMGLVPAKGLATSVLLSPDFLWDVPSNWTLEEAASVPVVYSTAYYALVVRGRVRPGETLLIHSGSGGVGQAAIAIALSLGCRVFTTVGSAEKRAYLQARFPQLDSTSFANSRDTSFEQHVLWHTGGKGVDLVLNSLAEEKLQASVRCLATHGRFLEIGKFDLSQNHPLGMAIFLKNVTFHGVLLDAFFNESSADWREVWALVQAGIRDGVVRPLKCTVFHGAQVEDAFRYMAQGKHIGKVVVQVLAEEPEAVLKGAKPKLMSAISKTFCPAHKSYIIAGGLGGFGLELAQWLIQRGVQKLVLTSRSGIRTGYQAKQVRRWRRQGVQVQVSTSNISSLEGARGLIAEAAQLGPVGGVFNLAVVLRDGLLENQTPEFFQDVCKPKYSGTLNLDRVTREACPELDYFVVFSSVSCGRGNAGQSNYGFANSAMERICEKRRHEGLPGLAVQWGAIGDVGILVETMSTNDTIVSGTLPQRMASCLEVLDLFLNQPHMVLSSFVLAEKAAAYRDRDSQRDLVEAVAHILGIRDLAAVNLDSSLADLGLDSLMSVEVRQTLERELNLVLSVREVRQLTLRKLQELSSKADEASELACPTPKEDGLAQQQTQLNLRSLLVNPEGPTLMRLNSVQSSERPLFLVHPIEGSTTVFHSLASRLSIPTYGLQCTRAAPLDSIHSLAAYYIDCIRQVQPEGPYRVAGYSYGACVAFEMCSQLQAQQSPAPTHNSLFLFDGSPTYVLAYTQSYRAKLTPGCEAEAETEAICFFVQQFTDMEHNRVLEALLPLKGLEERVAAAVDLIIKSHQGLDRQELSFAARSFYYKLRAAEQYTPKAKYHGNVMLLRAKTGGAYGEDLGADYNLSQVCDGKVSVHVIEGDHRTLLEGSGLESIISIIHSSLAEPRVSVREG
The target of test [13] is Sphingosine 1-phosphate receptor 2 (Homo sapiens, UniProt O95136). As to the kind of experiment: Dose Response Cell Based Assay for Agonists of the S1P2 Receptor. [Related pubchem assays: 729, 736, 843 ]. The format is functional.
Sphingosine 1-phosphate receptor 2, sequence (O95136 whole entry): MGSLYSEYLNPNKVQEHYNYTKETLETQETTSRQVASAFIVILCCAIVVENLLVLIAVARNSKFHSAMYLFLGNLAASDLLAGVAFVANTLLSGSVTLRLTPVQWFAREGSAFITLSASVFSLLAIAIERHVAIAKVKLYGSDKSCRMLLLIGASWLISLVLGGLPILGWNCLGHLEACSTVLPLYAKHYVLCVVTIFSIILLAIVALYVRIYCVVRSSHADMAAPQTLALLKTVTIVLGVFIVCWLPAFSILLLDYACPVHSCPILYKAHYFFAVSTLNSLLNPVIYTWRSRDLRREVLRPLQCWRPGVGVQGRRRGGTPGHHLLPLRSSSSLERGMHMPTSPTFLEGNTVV
Test [14] concerns the target T5, Fatty acid synthase. The test is described as follows: inhibition of human FAS-TE enzyme activity – biochemical, kinetic fluorescence intensity, dose response (AID 624326).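 Also: rate of fluorescence rise from hydrolysis of a fluorogenic O-methyl fluorescein ester substrate.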 The format is functional.
Test [15] has as its target Endoplasmic reticulum aminopeptidase 1 (Homo sapiens, UniProt Q9NZ08). The test is described as follows: inhibition of human ERAP1 enzyme activity – biochemical, cherry-pick, set 2, plate reader, dose response (AID 743314).
Test [16] addresses Sphingosine 1-phosphate receptor 1 (Homo sapiens, UniProt P21453). The test is described as follows: Fluorescence-based counterscreen assay for S1P4 agonists: Cell-based dose response high throughput screening assay to identify agonists of the Sphingosine 1-Phosphate Receptor 1 (S1P1). [Related pubchem assays (depositor defined):AID1509, AID1523, AID1801, AID463107, AID463118, AID463119, AID463122, AID463123, AID463129, AID463225, AID504400, AID504460]. In kind it is functional. In general terms: The purpose of a counterscreen is to sort out artefacts and off-target activity.

Test [17] concerns the target Sphingosine 1-phosphate receptor 4 (Homo sapiens, UniProt O95977). The test is described as follows: Fluorescence dose response cell-based high throughput screening assay for agonists of the Sphingosine 1-Phosphate Receptor 4 (S1P4). [Related pubchem assays: 1509 (Primary screen.), 1523 (Confirmation screen in triplicates.)]. The format is functional.

Calls of active or inactive are those of the source.

Sphingosine 1-phosphate receptor 1, sequence (P21453 whole entry): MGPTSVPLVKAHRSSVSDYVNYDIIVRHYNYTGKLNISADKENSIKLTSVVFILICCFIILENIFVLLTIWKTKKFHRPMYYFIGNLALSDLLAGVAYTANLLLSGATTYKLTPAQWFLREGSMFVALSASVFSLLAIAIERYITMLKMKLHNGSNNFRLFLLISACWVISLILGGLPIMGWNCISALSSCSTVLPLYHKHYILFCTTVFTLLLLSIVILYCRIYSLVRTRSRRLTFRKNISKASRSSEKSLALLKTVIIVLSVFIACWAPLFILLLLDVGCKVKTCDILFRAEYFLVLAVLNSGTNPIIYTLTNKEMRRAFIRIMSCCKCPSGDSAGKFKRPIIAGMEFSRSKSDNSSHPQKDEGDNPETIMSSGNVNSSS
Endoplasmic reticulum aminopeptidase 1, sequence (Q9NZ08 whole entry): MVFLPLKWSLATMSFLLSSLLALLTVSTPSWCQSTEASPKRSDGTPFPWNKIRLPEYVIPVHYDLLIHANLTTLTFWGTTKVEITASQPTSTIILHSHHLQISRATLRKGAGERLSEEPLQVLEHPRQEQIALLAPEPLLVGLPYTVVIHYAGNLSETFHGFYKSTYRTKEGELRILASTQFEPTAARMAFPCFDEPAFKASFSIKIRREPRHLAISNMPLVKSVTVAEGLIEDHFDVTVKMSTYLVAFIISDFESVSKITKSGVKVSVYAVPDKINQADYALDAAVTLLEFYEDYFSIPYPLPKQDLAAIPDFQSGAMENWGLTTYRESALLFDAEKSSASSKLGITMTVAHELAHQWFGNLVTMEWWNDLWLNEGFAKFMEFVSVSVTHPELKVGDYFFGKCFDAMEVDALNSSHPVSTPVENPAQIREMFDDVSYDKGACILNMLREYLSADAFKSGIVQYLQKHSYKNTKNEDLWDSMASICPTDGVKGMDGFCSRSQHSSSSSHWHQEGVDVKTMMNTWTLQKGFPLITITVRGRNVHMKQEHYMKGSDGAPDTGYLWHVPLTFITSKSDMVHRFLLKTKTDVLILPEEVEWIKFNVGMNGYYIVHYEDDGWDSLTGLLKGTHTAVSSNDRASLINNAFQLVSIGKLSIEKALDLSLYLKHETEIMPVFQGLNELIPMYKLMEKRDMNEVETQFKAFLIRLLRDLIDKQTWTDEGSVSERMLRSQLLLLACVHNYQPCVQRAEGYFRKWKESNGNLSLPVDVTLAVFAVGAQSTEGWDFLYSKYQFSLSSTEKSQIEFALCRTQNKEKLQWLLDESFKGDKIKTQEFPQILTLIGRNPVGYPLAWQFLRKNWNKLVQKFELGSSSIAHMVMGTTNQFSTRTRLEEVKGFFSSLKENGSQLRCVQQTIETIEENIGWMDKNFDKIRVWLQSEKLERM
Sphingosine 1-phosphate receptor 4, sequence (O95977 whole entry): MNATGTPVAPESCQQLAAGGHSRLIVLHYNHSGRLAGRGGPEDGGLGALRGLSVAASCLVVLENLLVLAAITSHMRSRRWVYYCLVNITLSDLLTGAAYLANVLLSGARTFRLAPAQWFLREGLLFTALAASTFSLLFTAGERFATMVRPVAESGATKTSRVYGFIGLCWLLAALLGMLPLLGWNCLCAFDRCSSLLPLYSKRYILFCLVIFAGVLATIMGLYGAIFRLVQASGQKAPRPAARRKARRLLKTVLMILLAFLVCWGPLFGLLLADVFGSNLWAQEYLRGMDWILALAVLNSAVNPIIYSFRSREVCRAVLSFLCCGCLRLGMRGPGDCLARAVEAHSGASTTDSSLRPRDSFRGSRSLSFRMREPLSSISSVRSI

The term EC50 denotes the concentration that produces a half-maximal response. The IC50 is the concentration at which inhibition is half-maximal. For the molecule `CCCOCC(O)CC(CC)C(=O)NNC(=S)Nc1ccccc1` (configuration not stated), the EC50 in test [1] is 16.2 µM (active); in test [2] it was 15.1 µM (active); in test [3], > 100 µM (not active); in test [5] it was 14.1 µM (active). For the same molecule, the half-inhibitory concentration (IC50) in test [4] was 69.5 µM (active).

`Cc1cc(C(=O)NCCCN2CCCC2=O)cs1`: the IC50 in test [6], in [7] and in test [8] was > 79.4 µM (inactive) each time.

For `c1cc2c(cnc3cscc32)s1`, the EC50 in [9] is 8.78 µM (active); in test [10], 69.3 µM (not active); in test [11] it was 12 µM (not active).

As usually defined, the AC50 is the concentration giving half of the maximal activity seen. As to `O=S(=O)(c1ccc(N2CCC(c3ccc(Cl)cc3)=N2)cc1)N(CCO)CCO`, the IC50 on Fatty acid synthase [12] was 0.434 µM (active); on Fatty acid synthase [14], 0.469 µM (active). Further, the EC50 is 1.95 µM (active) in test [13], 3.12 µM (active) in test [16] and 3.65 µM (active) in test [17]. Further, the AC50 in test [15] is 13 µM (active).
